# Assay results reported in the supplement of paper PMC10307832.
# Columns and labels:
# Experiment in all cases: relative viability (nuclei count vs DMSO), 5 days (fraction); higher = more cells survive
# GSK126 + Linsitinib = compound: CC[C@H](C)N1C=C(C2=C(C=C(C=C21)C3=CN=C(C=C3)N4CCNCC4)C(=O)NCC5=C(C=C(NC5=O)C)C)C [GSK126] + C[C@]1(O)C[C@@H](c2nc(-c3ccc4ccc(-c5ccccc5)nc4c3)c3c(N)nccn32)C1 [Linsitinib] (partner 1 µM)
# Procedure, shortened: (§1)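 Lung cancer cell lines in 1536-well plates got either a single drug or a fixed anchor-drug dose together with five library-drug doses (not always all listed) in √10 steps, by pin tool, on the day after seeding. Nuclei were counted after 5 days, and relative viability is the treated-to-vehicle ratio of nuclei counts. Values are medians of duplicate plates.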
# GSK126 + Phenformin = compound: CC[C@H](C)N1C=C(C2=C(C=C(C=C21)C3=CN=C(C=C3)N4CCNCC4)C(=O)NCC5=C(C=C(NC5=O)C)C)C [GSK126] + N=C(N)NC(=N)NCCc1ccccc1 [Phenformin] (partner 250 µM)
# Procedure, shortened: as §1
# Carboplatin + Tozasertib = compound: C1CC(C1)(C(=O)O)C(=O)O.[NH2-].[NH2-].[Pt+2] [Carboplatin] + Cc1cc(Nc2cc(N3CCN(C)CC3)nc(Sc3ccc(NC(=O)C4CC4)cc3)n2)n[nH]1 [Tozasertib] (partner 0.1 µM)
# Procedure, shortened: as §1
# Carboplatin + Olaparib = compound: C1CC(C1)(C(=O)O)C(=O)O.[NH2-].[NH2-].[Pt+2] [Carboplatin] + O=C(c1cc(Cc2n[nH]c(=O)c3ccccc23)ccc1F)N1CCN(C(=O)C2CC2)CC1 [Olaparib] (partner 8 µM)
# Procedure, shortened: as §1
Cell Line,relative viability (GSK126 + Linsitinib; first compound 0.08 µM),relative viability (GSK126 + Linsitinib; first compound 0.253 µM),relative viability (GSK126 + Linsitinib; first compound 0.8 µM),relative viability (GSK126 + Linsitinib; first compound 2.53 µM),relative viability (GSK126 + Linsitinib; first compound 8 µM),relative viability (GSK126 + Phenformin; first compound 0.08 µM),relative viability (GSK126 + Phenformin; first compound 0.253 µM),relative viability (GSK126 + Phenformin; first compound 0.8 µM),relative viability (GSK126 + Phenformin; first compound 2.53 µM),relative viability (GSK126 + Phenformin; first compound 8 µM),relative viability (Carboplatin + Tozasertib; first compound 0.08 µM),relative viability (Carboplatin + Tozasertib; first compound 0.253 µM),relative viability (Carboplatin + Tozasertib; first compound 0.8 µM),relative viability (Carboplatin + Tozasertib; first compound 2.53 µM),relative viability (Carboplatin + Tozasertib; first compound 8 µM),relative viability (Carboplatin + Olaparib; first compound 0.08 µM),relative viability (Carboplatin + Olaparib; first compound 0.253 µM),relative viability (Carboplatin + Olaparib; first compound 0.8 µM),relative viability (Carboplatin + Olaparib; first compound 2.53 µM),relative viability (Carboplatin + Olaparib; first compound 8 µM)
COR-L 105,1.01,1.06,0.729,0.997,0.858,0.5,0.547,0.596,0.529,0.513,0.37,0.337,0.348,0.359,0.345,0.766,0.756,0.518,0.544,0.456
NCI-H727,0.218,0.388,0.26,0.319,0.364,0.469,0.622,0.587,0.624,0.533,0.572,0.653,0.54,0.562,0.624,0.75,0.586,0.862,0.646,0.667
EKVX,1.04,1.12,0.918,1.01,0.885,0.229,0.252,0.246,0.218,0.231,0.439,0.371,–,0.381,0.38,0.856,0.81,0.872,0.734,0.671
NCI-H1437,1.07,1.07,0.954,0.983,0.938,0.298,0.362,0.269,0.319,0.311,0.386,0.43,0.403,0.4,0.401,0.646,0.675,0.578,0.623,0.594
PC-3 [JPC-3],1.01,0.977,0.941,0.921,0.958,0.478,0.489,0.48,0.456,0.489,0.863,0.877,0.863,0.853,0.765,1.23,1.14,1.12,1.04,0.835
LK-2,0.397,0.485,0.626,0.944,0.352,0.658,0.522,0.454,0.334,0.352,0.16,0.168,0.184,0.163,0.137,0.743,0.702,0.726,0.65,0.844
NCI-H1651,1.07,0.815,0.855,0.972,1.05,0.369,0.268,0.354,0.313,0.364,0.89,0.668,0.593,0.508,0.305,0.191,0.199,0.185,0.166,0.161
LC-2-ad,0.874,0.905,0.849,0.899,0.839,0.627,0.634,0.583,0.56,0.642,0.482,0.433,0.496,0.372,0.374,0.699,0.7,0.666,0.675,0.522
NCI-H1734,0.871,0.896,0.814,0.846,0.946,0.474,0.361,0.393,0.382,0.418,0.289,0.295,0.31,0.242,0.26,0.598,0.623,0.522,0.574,0.423
NCI-H460,0.76,0.784,0.787,0.798,0.969,0.587,0.531,0.523,0.483,0.468,0.54,0.462,0.387,0.237,0.168,0.444,0.47,0.253,0.188,0.187
NCI-H838,1.12,0.979,0.952,0.906,0.866,0.652,0.468,0.522,0.487,0.555,0.296,0.28,0.254,0.273,0.279,0.773,0.746,0.757,0.683,0.575
NCI-H2347,1.04,0.943,0.916,0.885,0.965,0.488,0.444,0.499,0.352,0.409,0.54,0.547,0.637,0.633,0.56,0.55,0.568,0.57,0.546,0.498
NCI-H1395,1.26,1.01,0.991,0.998,1.08,0.487,0.446,0.43,0.506,0.474,0.721,0.733,0.65,0.646,0.566,0.509,0.467,0.505,0.41,0.46
NCI-H647,1.47,1.28,1.17,1.07,1.08,0.595,0.45,0.448,0.344,0.508,0.402,0.488,0.272,0.239,0.229,0.631,0.543,0.53,0.431,0.222
NCI-H520,1.12,1.03,0.915,1.07,1.11,0.572,0.542,0.561,0.574,0.497,0.5,0.433,0.438,0.389,0.459,0.408,0.253,0.328,0.313,0.287
